Laboratory results as given in the NIST ThermoML archive (doi:10.1016/j.fluid.2004.09.013).

Conditions: for mass density: Fluid (supercritical or subcritical phases), Vibrating tube method

C/C=C/C [(E)-2-butene]
Conditions	Critical density [kg/m3]	mass density [kg/m3]
453.25 K, 34989 kPa	–	504.85
453.25 K, 39997 kPa	–	515.79
458.25 K, 5018 kPa	–	143.71
458.25 K, 15001 kPa	–	424.61
458.25 K, 20004 kPa	–	451.96
458.25 K, 24994 kPa	–	471.69
458.25 K, 30004 kPa	–	487.34
458.25 K, 34994 kPa	–	500.33
458.25 K, 40004 kPa	–	511.57
458.26 K, 9992 kPa	–	376.95
463.25 K, 5019 kPa	–	132.86
463.25 K, 9998 kPa	–	364.93
463.25 K, 14997 kPa	–	416.89
463.25 K, 20001 kPa	–	445.66
463.25 K, 24994 kPa	–	466.25
463.25 K, 29992 kPa	–	482.44
463.25 K, 34997 kPa	–	495.87
463.25 K, 39985 kPa	–	507.37
468.25 K, 5019 kPa	–	124.67
468.25 K, 14984 kPa	–	408.44
468.25 K, 19991 kPa	–	439.31
468.25 K, 24990 kPa	–	460.78
468.25 K, 29991 kPa	–	477.55
468.25 K, 34993 kPa	–	491.38
468.25 K, 39991 kPa	–	503.2
468.26 K, 9993 kPa	–	352.22
473.25 K, 5018 kPa	–	118.06
473.25 K, 9998 kPa	–	339.4
473.25 K, 15002 kPa	–	400.67
473.25 K, 19991 kPa	–	432.96
473.25 K, 24985 kPa	–	455.31
473.25 K, 29991 kPa	–	472.65
473.25 K, 35002 kPa	–	486.9
473.25 K, 39993 kPa	–	499.03
478.25 K, 5018 kPa	–	112.62
478.25 K, 9993 kPa	–	326
478.25 K, 14989 kPa	–	392.47
478.25 K, 19985 kPa	–	426.52
478.25 K, 25003 kPa	–	449.85
478.25 K, 29992 kPa	–	467.75
478.25 K, 35005 kPa	–	482.42
478.25 K, 40012 kPa	–	494.85
483.25 K, 5018 kPa	–	107.95
483.25 K, 9988 kPa	–	312.49
483.25 K, 14996 kPa	–	384.28
483.25 K, 19982 kPa	–	420.06
483.25 K, 25007 kPa	–	444.4
483.25 K, 29987 kPa	–	462.83
483.25 K, 35000 kPa	–	477.93
483.25 K, 39990 kPa	–	490.66
488.25 K, 5018 kPa	–	103.9
488.25 K, 9985 kPa	–	299.1
488.25 K, 14997 kPa	–	376.01
488.25 K, 20002 kPa	–	413.74
488.25 K, 25005 kPa	–	438.9
488.25 K, 29988 kPa	–	457.94
488.25 K, 34992 kPa	–	473.43
488.25 K, 40013 kPa	–	486.57
493.25 K, 5018 kPa	–	100.36
493.25 K, 9986 kPa	–	285.99
493.25 K, 14990 kPa	–	367.61
493.25 K, 20001 kPa	–	407.28
493.25 K, 25006 kPa	–	433.4
493.25 K, 29986 kPa	–	453.04
493.25 K, 35005 kPa	–	469.02
493.25 K, 39997 kPa	–	482.38
498.25 K, 5018 kPa	–	97.2
498.25 K, 9992 kPa	–	273.51
498.25 K, 14982 kPa	–	359.21
498.25 K, 19993 kPa	–	400.8
498.25 K, 25004 kPa	–	427.91
498.25 K, 29983 kPa	–	448.16
498.25 K, 35000 kPa	–	464.56
498.25 K, 39994 kPa	–	478.26
503.25 K, 5019 kPa	–	94.38
503.25 K, 9995 kPa	–	261.54
503.25 K, 14996 kPa	–	351.04
503.25 K, 19991 kPa	–	394.38
503.25 K, 25000 kPa	–	422.42
503.25 K, 30008 kPa	–	443.38
503.25 K, 35007 kPa	–	460.15
503.25 K, 39992 kPa	–	474.14
508.25 K, 5017 kPa	–	91.73
508.25 K, 9986 kPa	–	249.99
508.25 K, 14991 kPa	–	342.7
508.25 K, 19987 kPa	–	387.81
508.25 K, 24998 kPa	–	416.93
508.25 K, 30007 kPa	–	438.53
508.25 K, 34991 kPa	–	455.68
508.25 K, 39996 kPa	–	470.06
513.25 K, 5019 kPa	–	89.39
513.25 K, 9982 kPa	–	239.32
513.25 K, 14985 kPa	–	334.4
513.25 K, 19985 kPa	–	381.11
513.25 K, 24987 kPa	–	411.43
513.25 K, 29999 kPa	–	433.67
513.25 K, 34992 kPa	–	451.29
513.25 K, 39993 kPa	–	465.98
518.24 K, 30001 kPa	–	428.87
518.24 K, 35000 kPa	–	446.94
518.25 K, 5016 kPa	–	87.15
518.25 K, 9990 kPa	–	229.8
518.25 K, 14984 kPa	–	326.26
518.25 K, 20002 kPa	–	374.92
518.25 K, 24995 kPa	–	406.05
518.25 K, 39988 kPa	–	461.92
523.24 K, 24994 kPa	–	400.62
523.24 K, 39996 kPa	–	457.91
523.25 K, 5016 kPa	–	85.12
523.25 K, 9982 kPa	–	220.69
523.25 K, 14998 kPa	–	318.44
523.25 K, 20000 kPa	–	368.56
523.25 K, 29990 kPa	–	424.03
523.25 K, 34989 kPa	–	442.55
Liquid, visual observation in a variable volume cell:FP	236.4	–

Liquid
Conditions	Critical pressure [kPa]	Critical temperature [K]
–	4027.3	428.61
